Experimental data: article PMC4084896 (PLoS ONE, 2014)
In brackets after ≈: the same amount, converted by molar mass.

Key:
[1] = tested on: C. parapsilosis 6; test: MIC assessment, microdilution; type: cell-based; conditions: Lodderomyces parapsilosis
Method: (§1) Antifungal activity was assessed using the standard microdilution method determining the minimum inhibitory concentrations (MICs) of the tested samples leading to inhibition of yeast growth. Disposable microtiter plates were used for the tests. The samples were diluted in brain heart infusion broth (HiMedia). […] C. albicans, C. krusei, C. tropicalis and C. parapsilosis. […] Subsequently, 100 µL were transferred into the first microplate well and serially diluted by a factor of 2. The prepared microplates were inoculated with a standard amount of the tested Candida spp. – the inoculum density in a well was equal to 10^5 CFU/mL. […] The minimum fungicidal concentration (MFC) is the minimum concentration of the sample required to kill the yeast after a defined period of incubation. The MFCs were determined by the inoculation method. With an applicator, 10 µL were transferred from the microplate wells with defined concentrations of the tested sample and inoculated onto Sabouraud agar (Trios). The MFC was determined as the lowest concentration that inhibited the visible growth of the used yeast. For growth curve assessment, the samples were serially diluted in 96-well microtiter plates. […] Absorbance (630 nm) was measured every hour during 24 hours and the obtained values were used to plot growth curves

[2] = tested on: C. albicans 1; test: MIC assessment, microdilution; type: cell-based; conditions: Candida albicans
Method: as §1

[3] = tested on: C. albicans 978; test: MIC assessment, microdilution; type: cell-based; conditions: Candida albicans
Method: as §1

[4] = tested on: C. krusei 094; test: MIC assessment, microdilution; type: cell-based; conditions: Pichia kudriavzevii
Method: as §1

[5] = tested on: C. tropicalis 5; test: MIC assessment, microdilution; type: cell-based; conditions: Candida tropicalis
Method: as §1

[6] = tested on: C. krusei 3; test: MIC assessment, microdilution; type: cell-based; conditions: Pichia kudriavzevii
Method: as §1

[7] = biological target: T1, glucocorticoid receptor (GR) (Homo sapiens, UniProt P04150); test: GR gene reporter assay in AZ-GR cells, agonist mode; type: cell-based
T1 sequence (P04150 1-777): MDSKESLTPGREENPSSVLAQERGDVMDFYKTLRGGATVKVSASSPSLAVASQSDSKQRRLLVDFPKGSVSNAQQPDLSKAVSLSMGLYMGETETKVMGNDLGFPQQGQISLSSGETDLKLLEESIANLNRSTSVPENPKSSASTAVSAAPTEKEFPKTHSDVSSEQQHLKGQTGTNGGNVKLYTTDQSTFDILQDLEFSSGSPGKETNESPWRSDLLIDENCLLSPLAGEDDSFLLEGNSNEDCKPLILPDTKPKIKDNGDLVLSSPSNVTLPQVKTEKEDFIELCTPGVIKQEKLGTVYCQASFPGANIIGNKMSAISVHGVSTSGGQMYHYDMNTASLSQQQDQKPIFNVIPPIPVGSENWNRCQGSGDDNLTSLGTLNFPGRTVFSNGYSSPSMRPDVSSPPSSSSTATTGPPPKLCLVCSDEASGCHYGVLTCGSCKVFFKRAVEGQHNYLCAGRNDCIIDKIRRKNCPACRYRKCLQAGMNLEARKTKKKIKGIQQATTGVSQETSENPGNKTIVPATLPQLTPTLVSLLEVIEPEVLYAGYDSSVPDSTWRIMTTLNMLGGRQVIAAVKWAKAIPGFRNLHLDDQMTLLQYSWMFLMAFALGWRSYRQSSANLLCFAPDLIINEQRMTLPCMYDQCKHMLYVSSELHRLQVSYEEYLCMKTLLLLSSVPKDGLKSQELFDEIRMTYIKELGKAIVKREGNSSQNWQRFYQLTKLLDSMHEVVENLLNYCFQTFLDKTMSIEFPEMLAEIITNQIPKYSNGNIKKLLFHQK
Excerpt: (§2) A stably transfected gene reporter cell line AZ-AHR, derived from human hepatoma HepG2 cells transfected with a construct containing several AhR binding sites upstream of a luciferase reporter gene, was used for assessment of AhR transcriptional activity. A stably transfected gene reporter cell line AZ-GR, derived from human cervix carcinoma HeLa cells transfected with a construct containing several GR response elements upstream of a luciferase reporter gene, was used for assessment of GR transcriptional activity. Cells were incubated for 24 h with tested compounds and/or vehicle (DMSO; 0.1% v/v), in the presence or absence of TCDD (5 nM; AZ-AHR cells) or DEX (100 nM; AZ-GR cells). After the treatments, cells were lysed and luciferase activity was measured. In parallel, cell viability was determined by conventional MTT test.
(§3) There is multiple evidence for the role of glucocorticoid receptor (GR) in regulation of AhR activity. […] Gene reporter assays were performed in agonist and antagonist mode (similarly as described in section 3.1.).

[8] = biological target: T1, glucocorticoid receptor (GR); test: GR gene reporter assay in AZ-GR cells, antagonist mode (DEX 100 nM); type: cell-based; conditions: 24 h
Excerpt: as §2, §3

[9] = biological target: T2, AhR (Mus musculus, UniProt P30561); test: EMSA with nuclear extracts from Hepa-1c1c7 cells (AhR-ARNT-DRE complex); type: cell-based; conditions: Hepa-1c1c7 nuclear extracts, 50 µM, 2 h
T2 construct: endogenous in cells; host or cells: mouse hepatoma Hepa-1c1c7 cells (living cells treated 2 h, then nuclear extracts made)
Method: Electrophoretic mobility shift assay was performed in guinea pig cytosol and nuclear extract from mouse hepatoma cells. Hepa-1c1c7 cells were incubated for 2 h with tested compounds. Nuclear extracts procedure and EMSA analysis was performed as previously described (Soshilov & Denison; 2014). Guinea pig hepatic cytosol (8 mg/mL in HEDG) was incubated for 2 h in a room temperature water bath with tested compounds. An aliquot of the reaction was mixed with poly[dI•dC] and [^32P]-DRE (100.000 cpm), and AHR:DRE:[^32P]DRE complexes were resolved by gel retardation analysis, visualized by autoradiography and quantified by phosphorimager analysis (FujiFilm) of the dried gels.
We carried out the electrophoretic mobility shift assay (EMSA) to reveal whether effects of KET on AhR-CYP1A pathway involve transformation of AhR to DNA binding form, and whether these effects are enantiospecific. For this purpose, EMSA was performed in two experimental systems: (i) Hepatic guinea pig cytosol was treated for 2 hours with DMSO, 20 nM TCDD, (+)-KET, (−)-KET and commercial rac-KET (from Sigma) at 10 µM, 30 µM and 50 µM. All forms of KET transformed AhR to DNA binding form, but the activation was very weak and not statistically above background. There was a slightly stronger effect of (+)-KET and rac-KET as compared to (−)-KET, but the difference was not significant (Figure 4A). (ii) Since we obtained only weak signals in guinea pig liver cytosols, we also analyzed nuclear extracts from mouse hepatoma Hepa-1c1c7 cells treated for 2 hours with DMSO, TCDD (10 nM), (+)-KET (50 µM), (−)-KET (50 µM), commercial rac-KET (Sigma; 50 µM) or an equimolar mix of (+)/(−) enantiomers (50 µM total). […] The effects of (−)-KET were slightly stronger as compared to (+)-KET. […] In addition, we observed formation of the second band with lower molecular weight than AhR-ARNT-DRE, by purified KET enantiomers but not by TCDD and commercial KET.

[10] = MTT cytotoxicity test in AZ-AHR cells; type: cell-based, human; conditions: human; 24 h incubation, six passages; read-out: AZ-AHR viability - MTT IC50
Excerpt: as §2
Prior to the agonist or antagonist experiments, the cytotoxicity of tested compounds was assessed using the conventional MTT assay. […] The vehicle was DMSO (0.1% v/v). After the treatment, a MTT test was performed.

[11] = MTT cytotoxicity test in primary human hepatocytes; type: cell-based; conditions: primary human hepatocytes, read-out: viability, % of control value
Excerpt: as §2
The cells were treated for 24 h with (+)-KET, (−)-KET and commercial rac-KET (1 µM, 30 µM, 50 µM), and with TCDD (5 nM) and vehicle (DMSO; 0.1% V/V). […] In the cytotoxicity assay, we found all forms of KET highly toxic against human hepatocytes at the concentration 50 µM.

[12] = tested on: tyrosine aminotransferase (TAT) mRNA; test: TAT mRNA in HepG2 cells (qRT-PCR); type: cell-based, human; conditions: HepG2, 1, 30, 50 µM, 24 h
[13] = tested on: AZ-GR cells; test: MTT cytotoxicity test in AZ-GR cells; type: cell-based, human; conditions: Homo sapiens; 24 h incubation; read-out: AZ-GR viability - MTT IC50
Excerpt: as §2, §3

[14] = biological target: T3, aryl hydrocarbon receptor AhR (Homo sapiens, UniProt P35869); test: AhR gene reporter assay in AZ-AHR cells, agonist mode; type: cell-based
T3 construct: endogenous in cells; host or cells: AZ-AHR (stably transfected reporter line derived from HepG2)
T3 sequence (P35869 11-848): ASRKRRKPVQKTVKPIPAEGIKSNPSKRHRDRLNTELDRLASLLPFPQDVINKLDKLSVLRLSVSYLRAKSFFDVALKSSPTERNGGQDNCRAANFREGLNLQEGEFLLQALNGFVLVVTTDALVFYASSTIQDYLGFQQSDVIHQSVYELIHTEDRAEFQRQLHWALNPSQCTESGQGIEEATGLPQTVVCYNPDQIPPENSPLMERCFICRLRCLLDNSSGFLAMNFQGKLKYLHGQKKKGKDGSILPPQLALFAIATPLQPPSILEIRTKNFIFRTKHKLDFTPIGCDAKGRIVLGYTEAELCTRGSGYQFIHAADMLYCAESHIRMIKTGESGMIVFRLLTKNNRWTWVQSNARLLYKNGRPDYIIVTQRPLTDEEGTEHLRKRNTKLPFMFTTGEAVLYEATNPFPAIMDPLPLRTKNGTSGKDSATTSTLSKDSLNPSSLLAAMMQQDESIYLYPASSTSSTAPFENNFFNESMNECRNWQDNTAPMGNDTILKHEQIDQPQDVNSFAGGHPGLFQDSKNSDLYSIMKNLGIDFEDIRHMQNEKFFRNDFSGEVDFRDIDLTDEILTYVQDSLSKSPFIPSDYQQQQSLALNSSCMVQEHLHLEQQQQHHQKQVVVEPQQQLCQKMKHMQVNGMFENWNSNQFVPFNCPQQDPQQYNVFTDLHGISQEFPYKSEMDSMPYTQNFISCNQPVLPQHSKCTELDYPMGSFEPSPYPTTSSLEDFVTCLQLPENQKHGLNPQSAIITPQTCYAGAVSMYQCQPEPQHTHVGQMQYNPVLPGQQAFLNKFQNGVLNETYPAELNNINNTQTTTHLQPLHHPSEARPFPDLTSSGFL
Excerpt: as §2
(§4) Gene reporter assays were performed in two different experimental layouts. In agonist mode, cells were treated with increasing concentrations of tested compounds, and the half-maximal effective concentrations (EC50) were calculated.

[15] = biological target: T3, aryl hydrocarbon receptor AhR; test: AhR gene reporter assay in AZ-AHR cells, antagonist mode (TCDD 5 nM); type: cell-based; conditions: 24 h, in the presence of TCDD 5 nM
Excerpt: as §2, §4

T2 sequence (P30561 10-805 limits assumed): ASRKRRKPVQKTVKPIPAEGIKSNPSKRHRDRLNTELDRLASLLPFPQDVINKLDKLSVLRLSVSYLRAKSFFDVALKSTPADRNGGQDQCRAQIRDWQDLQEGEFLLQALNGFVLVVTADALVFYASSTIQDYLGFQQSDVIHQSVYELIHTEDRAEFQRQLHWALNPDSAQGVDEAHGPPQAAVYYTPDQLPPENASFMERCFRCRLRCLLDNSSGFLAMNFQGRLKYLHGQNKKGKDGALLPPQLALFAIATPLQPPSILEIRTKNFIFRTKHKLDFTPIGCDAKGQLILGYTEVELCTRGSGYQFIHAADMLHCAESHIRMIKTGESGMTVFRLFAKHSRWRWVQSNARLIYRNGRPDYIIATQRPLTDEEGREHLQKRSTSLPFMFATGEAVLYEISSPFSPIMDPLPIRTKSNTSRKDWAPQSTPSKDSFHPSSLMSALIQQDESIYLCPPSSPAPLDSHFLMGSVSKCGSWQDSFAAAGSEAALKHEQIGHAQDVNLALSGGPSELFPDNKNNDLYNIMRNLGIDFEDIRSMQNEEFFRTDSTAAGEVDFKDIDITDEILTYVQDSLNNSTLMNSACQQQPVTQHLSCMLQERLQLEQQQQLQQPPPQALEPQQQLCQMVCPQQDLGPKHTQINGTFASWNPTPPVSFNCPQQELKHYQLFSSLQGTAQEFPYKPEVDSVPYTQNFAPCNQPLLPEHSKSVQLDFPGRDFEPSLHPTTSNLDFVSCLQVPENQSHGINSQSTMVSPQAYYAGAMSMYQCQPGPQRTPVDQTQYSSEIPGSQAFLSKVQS
T2 sequence (P53762 whole entry partner): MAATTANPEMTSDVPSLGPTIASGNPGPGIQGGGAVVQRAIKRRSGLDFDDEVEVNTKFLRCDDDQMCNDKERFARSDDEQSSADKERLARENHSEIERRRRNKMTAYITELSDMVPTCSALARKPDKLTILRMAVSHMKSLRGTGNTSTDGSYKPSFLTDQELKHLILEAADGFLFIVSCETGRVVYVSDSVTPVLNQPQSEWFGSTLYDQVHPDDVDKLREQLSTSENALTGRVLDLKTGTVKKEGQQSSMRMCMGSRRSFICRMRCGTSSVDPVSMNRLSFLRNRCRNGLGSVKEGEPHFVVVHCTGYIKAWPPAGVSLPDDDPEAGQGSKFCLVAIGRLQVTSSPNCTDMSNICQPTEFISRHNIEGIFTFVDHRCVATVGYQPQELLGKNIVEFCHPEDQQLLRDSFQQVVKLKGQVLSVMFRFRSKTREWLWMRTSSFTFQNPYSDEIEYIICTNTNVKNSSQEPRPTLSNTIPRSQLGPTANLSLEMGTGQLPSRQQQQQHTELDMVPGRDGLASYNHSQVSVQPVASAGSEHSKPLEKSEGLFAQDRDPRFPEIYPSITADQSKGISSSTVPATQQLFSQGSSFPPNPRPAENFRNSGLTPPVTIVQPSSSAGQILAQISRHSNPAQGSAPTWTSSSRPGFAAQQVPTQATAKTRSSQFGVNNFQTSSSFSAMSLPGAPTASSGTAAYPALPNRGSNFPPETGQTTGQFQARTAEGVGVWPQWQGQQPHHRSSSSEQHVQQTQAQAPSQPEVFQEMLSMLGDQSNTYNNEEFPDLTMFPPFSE

Row | SMILES | MIC [1] [µg/mL] | MIC [2] [µg/mL] | MIC [3] [µg/mL] | MIC [4] [µg/mL] | MIC [5] [µg/mL] | MIC [6] [µg/mL] | transformation of AhR to DNA binding form (in words) [9] | other results
1 | CC[C@@H]([C@H](C)O)n1ncn(-c2ccc(N3CCN(c4ccc(OC[C@@H]5CO[C@@](Cn6cncn6)(c6ccc(F)cc6F)C5)cc4)CC3)cc2)c1=O [Posaconazole, posaconazole] | 0.032 (≈ 0.0457 µM) | 0.094 (≈ 0.134 µM) | 0.064 (≈ 0.0913 µM) | 0.25 (≈ 0.357 µM) | 0.19 (≈ 0.271 µM) | 0.19 (≈ 0.271 µM) | – | –
2 | C[C@@H]1C[C@H]2[C@@H]3CCC4=CC(=O)C=C[C@]4(C)[C@@]3(F)[C@@H](O)C[C@]2(C)[C@@]1(O)C(=O)CO [DEX, dexamethasone] | – | – | – | – | – | – | – | average induction of GR-dependent luciferase activity ([7]; 100 nM DEX, four passages): 70 fold
3 | C[C@@H](c1ncncc1F)[C@](O)(Cn1cncn1)c1ccc(F)cc1F [Voriconazole, voriconazole] | 0.023 (≈ 0.0658 µM) | 0.016 (≈ 0.0458 µM) | 0.016 (≈ 0.0458 µM) | 0.19 (≈ 0.544 µM) | 0.19 (≈ 0.544 µM) | 0.19 (≈ 0.544 µM) | – | –
4 | CC(=O)N1CCN(c2ccc(OCC3COC(Cn4ccnc4)(c4ccc(Cl)cc4Cl)O3)cc2)CC1 (racemic) [racemic KET obtained by mixing pure (+)-KET and pure (−)-KET in ratio 1∶1] | – | – | – | – | – | – | much weaker and comparable with individual enantiomers | antagonist effect in titration experiment (in words) ([8]; final concentration 50 µM, DEX 100 nM): much stronger as compared to commercial rac-KET
5 | OC(Cn1cncn1)(Cn1cncn1)c1ccc(F)cc1F [Fluconazole, fluconazole] | 2 (≈ 6.53 µM) | 0.38 (≈ 1.24 µM) | 1.5 (≈ 4.9 µM) | 32 (≈ 104 µM) | 6 (≈ 19.6 µM) | 48 (≈ 157 µM) | – | –
6 | CC(=O)N1CCN(c2ccc(OC[C@@H]3CO[C@@](Cn4ccnc4)(c4ccc(Cl)cc4Cl)O3)cc2)CC1 [(−)-KET, (2S,4R)-(−)-KET] | – | – | – | – | – | – | only weakly transformed | IC50 at 24 h [10]: 72.7 ± 27.3 µM; viability at 24 h, 50 µM [11]: 37%; TAT mRNA induction (in words) [12]: strong, concentration-dependent induction; IC50 ([8]; in the presence of DEX 100 nM): 26.7 ± 3.7 µM; IC50 [13]: 71.6 ± 27.5 µM; increase of luciferase activity, agonist mode ([7]; up to / at 100 µM, 24 h): did not induce luciferase activity; AZ-AHR gene reporter - agonist efficacy [14]: 5,2 ± 3,2%; EC50 ([14]; 24 h, agonist mode): 2.2 µM; IC50 [15]: 17.5 ± 1.7 µM
